Experimental data taken from patent US20090098226A1, “COMPOSITION FOR COSMETIC OR PHARMACEUTICAL-DERMATOLOGICAL USE” (priority 2006, published 2009).

Key:
[1] = system: COX2; assay: Test 3: COX2 expression after oxidative insult (previous test repeated, 3 hours and 24 hours); assay type: cell-based, human
Procedure: (§1) Tests on the capacity of the indicated preparations to prevent oxidative damage, induced in dermal tissue cells, were conducted on human fibroblasts which were isolated then cultivated in a suitable culture medium. Oxidative stress was induced by adding a mixture of 40 mM xanthine and 2 mM hypoxanthine to the culture medium, a mixture with known ability to induce formation of Reactive Oxygen Species (ROS), agents which cause cell damage up to necrosis. The preparations under examination could be added, or not, to the broth at the same time as the xanthine/hypoxanthine mixture. The contact time between the xanthine/hypoxanthine mixture and the preparations was 2 hours, at the end of which the cells were transplanted into a fresh culture medium, i.e. containing neither the stress-inducing mixture nor the substance, then allowed to quiesce for periods of 3 or 24 hours. At the end of the stated period, gene expression of the prostaglandin G/H synthase and cyclooxygenase2 (COX2) enzyme was detected which is indicative of the inflammatory state induced in cells by oxidative stress.

[2] = system: COX2; assay: Test 2: COX2 expression in human fibroblasts after xanthine/hypoxanthine oxidative stress; assay type: cell-based; conditions: 24 hours after oxidative stress, insulted human fibroblasts
Procedure: as §1
Expression of COX2 (normalized fluorescence units vs housekeeping gene 18s rRNA) 24 hours after oxidative stress, in “insulted” cells in the presence of curcumin, curcumin complexed with Zn and FDP used separately, and in the presence of the ternary system.

## COc1cc(/C=C/C(=O)CC(=O)/C=C/c2ccc(O)c(OC)c2)ccc1O [curcumin, Curcumin]
[1]; 3 μM, 3 hours
  COX2 expression after oxidative insult: 5.76 normalized fluorescence units vs housekeeping gene 18s rRNA
[1]; 3 μM, 24 hours
  COX2 expression after oxidative insult: 5.00 normalized fluorescence units vs housekeeping gene 18s rRNA
[1]; 6 μM, 3 hours
  COX2 expression after oxidative insult: 5.45 normalized fluorescence units vs housekeeping gene 18s rRNA
[1]; 6 μM, 24 hours
  COX2 expression after oxidative insult: 4.90 normalized fluorescence units vs housekeeping gene 18s rRNA
[1]; 9 μM, 3 hours
  COX2 expression after oxidative insult: 5.10 normalized fluorescence units vs housekeeping gene 18s rRNA
[1]; 9 μM, 24 hours
  COX2 expression after oxidative insult: 4.78 normalized fluorescence units vs housekeeping gene 18s rRNA
[2]; 3 μM
  Expression of COX2: 5.00 normalized fluorescence units vs housekeeping gene 18s rRNA
[2]; 6 μM
  Expression of COX2: 4.90 normalized fluorescence units vs housekeeping gene 18s rRNA

## O=P(O)(O)OC[C@H]1O[C@@](O)(COP(=O)(O)O)[C@@H](O)[C@@H]1O [FDP, Fructose 1-6 diphosphate]
[1]; 5 mM, 3 hours
  COX2 expression after oxidative insult: 7.87 normalized fluorescence units vs housekeeping gene 18s rRNA
[1]; 5 mM, 24 hours
  COX2 expression after oxidative insult: 7.14 normalized fluorescence units vs housekeeping gene 18s rRNA
[1]; 10 mM, 3 hours
  COX2 expression after oxidative insult: 6.90 normalized fluorescence units vs housekeeping gene 18s rRNA
[1]; 10 mM, 24 hours
  COX2 expression after oxidative insult: 6.45 normalized fluorescence units vs housekeeping gene 18s rRNA
[2]; 5 mM
  Expression of COX2: 7.14 normalized fluorescence units vs housekeeping gene 18s rRNA

## C[C@H]1[C@H](C)CC[C@]2(C)CC[C@]3(C)C(=CC[C@@H]4[C@@]5(C)CC[C@@H](O)[C@](C)(C(=O)O)[C@@H]5CC[C@]43C)[C@H]12 [boswellic acid]
[1]; 100 μM, 3 hours
  COX2 expression after oxidative insult: 7.80 normalized fluorescence units vs housekeeping gene 18s rRNA
[1]; 100 μM, 24 hours
  COX2 expression after oxidative insult: 8.00 normalized fluorescence units vs housekeeping gene 18s rRNA
[1]; 300 μM, 3 hours
  COX2 expression after oxidative insult: 8.10 normalized fluorescence units vs housekeeping gene 18s rRNA
[1]; 300 μM, 24 hours
  COX2 expression after oxidative insult: 8.90 normalized fluorescence units vs housekeeping gene 18s rRNA
